In patent EP2284178A2, “Inhibitors of cancer cell, T-cell and keratinocyte proliferation” (4SC AG, priority 2005, dated 2007):

Target: T1, human Proteasome (Homo sapiens, UniProt P28074)
T1 construct: purchased Immatics, Tübingen
Assay: chymotryptic activity of the 20S proteasome (Suc-LLVT-AMC substrate, fluorescence)
Assay type: biochemical
Details: for human Proteasome IC50: result given in words
Protocol: The chymotryptic activity of the 20S proteasome (Immatics, Tübingen) was determined using a Tecan Ultra plate reader and Suc-LLVT-AMC as substrate (Bachem). In the wells of a black 96 well polypropylene plate, 2 µl of the respective inhibitor dissolved in DMSO were mixed with 50 µl substrate solution (25 mM HEPES pH 7.5 at 20°C, 0.5 mM EDTA and Suc-LLVT-AMC (in the appropriate concentration) and the reaction was initiated by adding 150 µl proteasome solution (1.3 µg/ml 20S proteasome in 25 mM HEPES pH 7.5 at 20°C, 0.5 mM EDTA, 0.033% (w/v) SDS). Substrate hydrolysis was followed by fluorescence spectroscopy (excitation wavelength: 360 nm; emission wavelength: 465 nm) for 20 min at 30°C and initial velocities were calculated and expressed as change in relative fluorescence units (RFU) per second.

| Compound | human Proteasome IC50 | IC50 (unit printed as µm) |
| --- | --- | --- |
| CC(C)(C)OC(=O)NC(Cc1ccc(Br)cc1)C(=O)NC(Cc1ccc2ccccc2c1)C(=O)NC(C=NN1CC(=O)NC1=O)Cc1ccccc1 (stereo not drawn) [Compound 7] | nanomolar |  |
| O=C1CN(N=CC(Cc2ccccc2)NC(=O)C(Cc2ccc3ccccc3c2)NC(=O)C(Cc2ccc(F)cc2)NC(=O)OCc2ccccc2)C(=O)N1 (stereo not drawn) [Compound 9] | nanomolar |  |
| O=C1CN(/N=C/C(Cc2ccccc2)NC(=O)c2csc(-c3ccc4c(c3)CCO4)n2)C(=O)N1 (stereo not drawn) [Compound 10] |  | 3.5 µM |
